Experimental data taken from EP4725957A1, “GROUP OF CYCLIC ALKALINE LIPOPEPTIDE COMPOUNDS, AND PREPARATION METHOD THEREFOR AND USE THEREOF” (Institute of Medicinal Biotechnology, Chinese Academy of …, priority 2023, dated 2024).
In brackets after ≈: the same amount, converted by molar mass. Read-outs that look alike come from different tables or passages of the source. Bridge positions count the residues as written; N and C are the ends. Square brackets hold non-standard residues; d marks the D form. Peptide text beside a SMILES is read from it. * marks the point of attachment. Dab(CH2SO3H) = N[C@@H](CCNCS(=O)(=O)O)C(=O)O; Heptanoyl(6-Me) = CC(C)CCCCC(=O)*; Nonanoyl = CCCCCCCCC(=O)*; X1 = CC[C@H](C)CCCCC(=O)*; dDab = NCC[C@@H](N)C(=O)O; Octanoyl = CCCCCCCC(=O)*; dDap = NC[C@@H](N)C(=O)O; Dab = NCC[C@H](N)C(=O)O; Dap = NC[C@H](N)C(=O)O

Key:
Type in all cases: cell-based
[1] = test system: Pseudomonas aeruginosa ATCC 27853
Summary of the method: (§1)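 Minimal inhibitory concentrations are measured following CLSI microdilution guidance in MH broth. Test concentrations run from 64 down to 0.03 mg/L in doubling steps, with a final bacterial load of (2-4) × 10^5 CFU/mL and 16-20 h incubation at 35-37°C.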

[2] = test system: Acinetobacter baumannii ABA19-1
Summary of the method: as §1

[3] = test system: Acinetobacter baumannii NCTC 13304 (OXA-27)
Summary of the method: as §1

[4] = test system: Escherichia coli ATCC BAA-2340 (KPC)
Summary of the method: as §1

[5] = test system: Klebsiella pneumoniae KPN+19-15
Summary of the method: as §1

[6] = test system: Pseudomonas aeruginosa PAE19-3
Summary of the method: as §1

[7] = test system: Escherichia coli ATCC BAA-2523
Summary of the method: as §1

[8] = test system: Klebsiella pneumoniae ATCC BAA-1705 (KPC)
Summary of the method: as §1

[9] = Nephrotoxicity assay: in vitro cytotoxicity of HK-2 cells by CCK-8 assay; details: human, HK-2 cells (human renal), 72 h incubation with drug-containing medium
Summary of the method: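 HK-2 human renal cells in RPMI-1640 with 10% FBS were exposed to compounds at final 12.5–500 µg/mL for 72 h, then CCK-8 for 3 h and OD450 read. Viability was normalised to drug-free wells; IC50 came from logarithmic regression over three repeats, with polymyxin B as positive drug.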

SMILES	MIC ([1]; ATCC 27853) [µg/mL]	MIC ([2]; ABA19-1) [µg/mL]	MIC ([3]; NCTC 13304) [µg/mL]	MIC ([4]; ATCC BAA-2340) [µg/mL]	MIC ([5]; KPN+19-15) [µg/mL]	MIC ([6]; PAE19-3) [µg/mL]	MIC ([7]; ATCC BAA-2523) [µg/mL]	MIC ([8]; ATCC BAA-1705) [µg/mL]	IC50 at 72 h [9] [µg/mL]	MIC ([1]; Pseudomonas aeruginosa ATCC27853) [µg/mL]	MIC ([2]; Acinetobacter baumannii ABA19-1) [µg/mL]	MIC ([3]; Acinetobacter baumannii NCTC 13304 (OXA-27)) [µg/mL]	MIC ([4]; Escherichia coli ATCC BAA-2340 (KPC)) [µg/mL]	MIC ([5]; Klebsiella pneumoniae KPN 19-15) [µg/mL]	MIC ([6]; Pseudomonas aeruginosa PAE19-3) [µg/mL]	MIC ([7]; Escherichia coli ATCC BAA-2523) [µg/mL]	MIC ([8]; Klebsiella pneumoniae ATCC BAA-1705 (KPC)) [µg/mL]
CC[C@H](C)CCCCC(=O)N[C@@H](CCN)C(=O)N[C@H](C(=O)N[C@H](CN)C(=O)N[C@H]1CCNC(=O)[C@H]([C@@H](C)O)NC(=O)[C@H](CCN)NC(=O)[C@H](CCN)NC(=O)[C@H](CC(C)C)NC(=O)[C@@H](Cc2ccccc2)NC(=O)[C@H](CCN)NC1=O)[C@@H](C)O [Compound 31, (S)-6-methyloctanoyl-Dab-Thr-D-Dap-ring(4-10)[Dab-Dab-D-Phe-Leu-Dab-Dab-Thr]] (X1-[Dab]T[dDap][Dab][Dab][dF]L[Dab][Dab]T; lactam 4-C)	0.03 (≈ 0.0252 µM)	0.03 (≈ 0.0252 µM)	0.03 (≈ 0.0252 µM)	0.03 (≈ 0.0252 µM)	0.03 (≈ 0.0252 µM)	0.25 (≈ 0.21 µM)	0.03 (≈ 0.0252 µM)	0.03 (≈ 0.0252 µM)	222 ± 10.2 (≈ 186 µM)	–	–	–	–	–	–	–	–
CCCCCCCCC(=O)N[C@@H](CN)C(=O)N[C@H](C(=O)N[C@H](CO)C(=O)N[C@H]1CCNC(=O)[C@H]([C@@H](C)O)NC(=O)[C@H](CCN)NC(=O)[C@H](CCN)NC(=O)[C@H]([C@@H](C)O)NC(=O)[C@@H](Cc2ccccc2)NC(=O)[C@H](CCN)NC1=O)[C@@H](C)O [Compound 55, Nonanoyl-Dap-Thr-D-Ser-ring(4-10)[Dab-Dab-D-Phe-Thr-Dab-Dab-Thr]] (Nonanoyl-[Dap]T[dS][Dab][Dab][dF]T[Dab][Dab]T; lactam 4-C)	64 (≈ 55 µM)	0.25 (≈ 0.215 µM)	0.25 (≈ 0.215 µM)	0.03 (≈ 0.0258 µM)	0.5 (≈ 0.429 µM)	8 (≈ 6.87 µM)	0.03 (≈ 0.0258 µM)	0.25 (≈ 0.215 µM)	300 ± 10.8 (≈ 258 µM)	–	–	–	–	–	–	–	–
CC(C)CCCCC(=O)N[C@@H](CCNCS(=O)(=O)O)C(=O)N[C@H](C(=O)N[C@@H](CN)C(=O)N[C@H]1CCNC(=O)[C@H]([C@@H](C)O)NC(=O)[C@H](CCN)NC(=O)[C@H](CCN)NC(=O)[C@H]([C@@H](C)O)NC(=O)[C@@H](Cc2ccccc2)NC(=O)[C@H](CCN)NC1=O)[C@@H](C)O [Compound 117, 6-methylheptanoyl-Dab(CH2SO3H)-Thr-Dap-ring(4-10)[Dab-Dab-D-Phe-Thr-Dab-Dab-Thr]] ({Heptanoyl(6-Me)}-[Dab(CH2SO3H)]T[Dap][Dab][Dab][dF]T[Dab][Dab]T; lactam 4-C)	0.25 (≈ 0.199 µM)	0.25 (≈ 0.199 µM)	0.06 (≈ 0.0477 µM)	0.06 (≈ 0.0477 µM)	0.125 (≈ 0.0994 µM)	0.5 (≈ 0.398 µM)	0.06 (≈ 0.0477 µM)	0.125 (≈ 0.0994 µM)	> 500	–	–	–	–	–	–	–	–
CCCCCCCC(=O)N[C@@H](CCN)C(=O)N[C@H](C(=O)N[C@@H](CN)C(=O)N[C@H]1CCNC(=O)[C@H]([C@@H](C)O)NC(=O)[C@H](CCN)NC(=O)[C@H](CCN)NC(=O)[C@H](CC(C)C)NC(=O)[C@@H](Cc2ccccc2)NC(=O)[C@H](CCN)NC1=O)[C@@H](C)O [Compound 38, Octanoyl-Dab-Thr-Dap-ring(4-10)[Dab-Dab-D-Phe-Leu-Dab-Dab-Thr]] (Octanoyl-[Dab]T[Dap][Dab][Dab][dF]L[Dab][Dab]T; lactam 4-C)	–	–	–	–	–	–	–	–	219 ± 9.4 (≈ 186 µM)	0.03 (≈ 0.0255 µM)	0.03 (≈ 0.0255 µM)	0.03 (≈ 0.0255 µM)	0.03 (≈ 0.0255 µM)	0.03 (≈ 0.0255 µM)	0.25 (≈ 0.213 µM)	0.03 (≈ 0.0255 µM)	0.03 (≈ 0.0255 µM)
CC(C)CCCCC(=O)N[C@@H](CCN)C(=O)N[C@H](C(=O)N[C@H](CCN)C(=O)N[C@H]1CCNC(=O)[C@H]([C@@H](C)O)NC(=O)[C@H](CCN)NC(=O)[C@H](CCN)NC(=O)[C@H]([C@@H](C)O)NC(=O)[C@@H](Cc2ccccc2)NC(=O)[C@H](CCN)NC1=O)[C@@H](C)O [Compound 12, 6-methylheptanoyl-Dab-Thr-D-Dab-ring(4-10)[Dab-Dab-D-Phe-Thr-Dab-Dab-Thr]] ({Heptanoyl(6-Me)}-[Dab]T[dDab][Dab][Dab][dF]T[Dab][Dab]T; lactam 4-C)	0.5 (≈ 0.425 µM)	0.06 (≈ 0.051 µM)	≤0.03	≤0.03	≤0.03	0.5 (≈ 0.425 µM)	≤0.03	0.125 (≈ 0.106 µM)	> 500	–	–	–	–	–	–	–	–
